Article PMC8113213, “Physiologically based kinetic modelling based prediction of in vivo rat and human acetylcholinesterase (AChE) inhibition upon exposure to diazinon” (Archives of Toxicology, 2021)
Read-outs that look alike come from different tables or passages of the source.

Key:
rat RBC AChE = target: T1, rat RBC AChE (Rattus norvegicus, UniProt P37136); assay: In vitro AChE inhibition assay (Ellman) with extracted rat RBC AChE; type: biochemical
T1 construct: the membrane fraction (containing AChE) was sedimented by centrifugation at 20,000g for 40 min; tissue BioIVT; host or cells: rat red blood cell membranes (from whole blood)
T1 sequence (P37136 other isoform, or with tags, fused parts or gaps): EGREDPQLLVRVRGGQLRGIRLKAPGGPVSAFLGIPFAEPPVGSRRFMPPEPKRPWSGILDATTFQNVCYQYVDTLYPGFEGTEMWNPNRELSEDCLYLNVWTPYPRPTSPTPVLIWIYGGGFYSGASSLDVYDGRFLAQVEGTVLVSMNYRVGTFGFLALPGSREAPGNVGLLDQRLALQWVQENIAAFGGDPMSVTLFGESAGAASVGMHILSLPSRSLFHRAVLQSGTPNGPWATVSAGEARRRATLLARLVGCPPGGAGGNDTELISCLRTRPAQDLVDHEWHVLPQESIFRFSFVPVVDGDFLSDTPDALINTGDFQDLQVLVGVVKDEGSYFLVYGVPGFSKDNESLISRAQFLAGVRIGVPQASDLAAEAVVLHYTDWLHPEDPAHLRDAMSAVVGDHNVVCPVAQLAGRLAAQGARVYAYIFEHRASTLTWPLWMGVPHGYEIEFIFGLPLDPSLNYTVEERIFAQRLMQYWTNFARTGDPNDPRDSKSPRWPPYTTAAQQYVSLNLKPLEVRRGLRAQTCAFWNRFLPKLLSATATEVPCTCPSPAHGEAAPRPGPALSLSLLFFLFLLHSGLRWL
Protocol: However, since recombinant rat AChE was not commercially available, extracted rat RBC AChE was used. […] The concentration of DTNB was calculated based on the concentration ratio (ATC/DTNB) of 2 (Stern et al. [2014]). […] To initiate the inhibition reaction, 1 µl rhAChE or rat AChE (final concentration 0.6 mU/ml) was added to the incubation. The total incubation volume was 50 µl. After 15 min incubation at 37℃, 150 µl reaction reagents (mixture of ATC at a final concentration of 150 µM and DTNB at a final concentration of 75 µM) were added into each well. The final total volume of each well was 200 µl. Subsequently, the 96-well plate was measured continuously for 10 min at absorbance 412 nm at 37℃ to quantify the remaining AChE activity.
The rhAChE and rat AChE activity were expressed as the remaining AChE activity relative to solvent control (100% activity) and positive control (0% activity) based on Eq. (2):2 AChEactivity\%=A412t10-t0testcompound-A412t10-t0positivecontrol/A412t10-t0solventcontrol-A412t10-t0positivecontrol×100\% , where the A412(t10 − t0)test compound is the change in the absorbance at A412 nm between 0 and 10 min for the test compound, the A412(t10 − t0)positive control is the change in the absorbance at A412 nm between 0 and 10 min for the CPO sample, and the A412(t10 − t0)solvent control is the change in the absorbance at A412nm between 0 and 10 min for the 0.2% ethanol sample.

brain AChE = conditions: cited from earlier work; for inhibition of brain AChE: ref Padilla et al. 2004
brain and RBC AChE = conditions: cited from earlier work
[1] = human, cited from earlier work

CCOP(=S)(OCC)Oc1cc(C)nc(C(C)C)n1 [DZN, O,O-diethyl O-2-isopropyl-6-methylpyrimidin-4-yl phosphorothioate]
IC50 (rat RBC AChE; rat RBC AChE, 15 min incubation at 37℃): 14.7 µM | toxic equivalency factor (TEF) (rat RBC AChE; rat, IC50 DZO/IC50 DZN, TEF of DZO set at 1.0): 0.00351 | inhibition of brain AChE (brain AChE; adult rats, oral dose of 75 mg/kg bw): 38% | BMDL10 for inhibition of brain AChE (brain AChE; male adult rats, oral DZN, ref USEPA 2016): 12.175 mg/kg bw/day | inhibition of brain AChE (brain AChE; pups at postnatal day 17, oral dose of 75 mg/kg bw): 75% | overall NOAEL from three rat studies (brain and RBC AChE; EFSA, ref EFSA 2006): 2.5 mg/kg bw | LOAEL, inhibition of brain and RBC AChE activity in female rat (brain and RBC AChE; JMPR, ref JMPR 2016): 25 mg/kg bw | NOAEL, acute (neuro)toxicity study in rats (brain and RBC AChE; JMPR, ref JMPR 2016): 2.5 mg/kg bw | Reported NOAEL from EFSA and JMPR (adult rat) (brain and RBC AChE; ref EFSA 2006, JMPR 2016): 2.5 mg/kg bw | fractional absorption (fa) ([1]; oral, ref Garfitt et al. 2002): 0.66 | first-order rate constant for absorption from the intestine into the liver (KaI) ([1]; ref Poet et al. 2004): 0.59 h⁻¹ | first-order rate constant for absorption from the stomach into the liver (KaS) ([1]; ref Poet et al. 2004): 0.32 h⁻¹ | first-order rate constant for transfer from the stomach into the intestine (KsI) ([1]; ref Poet et al. 2004): 0.48 h⁻¹
